Experimental findings from patent publication US9102614B2, “Naphth-2-ylacetic acid derivatives to treat AIDS” (Gilead Sciences, Inc., priority 2010, dated 2015) are described below.

Read-outs that look alike come from different tables or passages of the source.

The test system of this assay is HIV-IIIb. Briefly: Test A: Antiviral Assays in MT4 Cells. The format is cell-based. Conditions: MT-4 cells infected with HIV-IIIb (0.004 m.o.i.), 5 days of incubation, CellTiter-Glo chemiluminescence readout, read-out: EC50. The protocol: Test A: Antiviral Assays in MT4 Cells
For the antiviral assay utilizing MT-4 cells, 0.4 μL of […] test concentration of 3-fold serially diluted compound in DMSO was added to 40 μL of cell growth medium (RPMI 1640, 10% FBS, 1% penicillin/Streptomycin, 1% L-Glutamine, 1% HEPES) in each well of 384-well assay plates (10 concentrations) in quadruplicate.
1 mL aliquots of 2×10e6 MT-4 cells are pre-infected for 1 and 3 hrs respectively, @37° C. with 25 μL (MT4) or of either cell growth medium (mock-infected) or a fresh 1:250 dilution of an HIV-IIIb concentrated ABI stock (0.004 m.o.i. for MT4 cells). Infected and uninfected cells are diluted in cell growth medium and 35 uL of 2000 (for MT4) cells is added to each well of the assay plates.
Assay plates were then incubated in a 37° C. incubator. After 5 days of incubation, 25 μl of 2× concentrated CellTiter-Glo™ Reagent (catalog #G7573, Promega Biosciences, Inc., Madison, Wis.) was added to each well of the assay plate. Cell lysis was carried out by incubating at room temperature for 2-3 min and then chemiluminescence was read using the Envision reader (PerkinElmer).
(ATP-based viability assays read luminescence as a measure of living cells.)

The mark [1] stands for this setting: Human immunodeficiency virus 1, IIIB, MT4, 120 h.

With `Cc1cc2cc(C#N)c(F)cc2c(-c2ccc3c4c(ccnc24)CCO3)c1[C@H](OC(C)(C)C)C(=O)O` [Compound 106A, (S)-2-tert-Butoxy-2-((R)-6-cyano-1-(2,3-dihydropyrano[4,3,2-de]quinolin-7-yl)-7-fluoro-3-methylnaphthalen-2-yl)acetic acid], the 50% effective concentration (EC50) (in general, the concentration giving half of the maximal effect) was 86 nM.

Regarding `Cc1cc2cc(-c3cccnc3)ccc2c(-c2ccc(Cl)cc2)c1[C@H](OC(C)(C)C)C(=O)O` [Compound 54, (S)-2-tert-Butoxy-2-(1-(4-chlorophenyl)-3-methyl-6-(pyridin-3-yl)naphthalen-2-yl)acetic acid], the EC50 under setting [1] is 55 nM.

In the case of `CCc1ccc2c(-c3ccc4c5c(ccnc35)CCO4)c([C@H](OC(C)(C)C)C(=O)O)c(C)cc2c1F` (atropisomer, axis not shown) [Compound 120, (S)-2-tert-Butoxy-2-((R)-1-(2,3-dihydropyrano[4,3,2-de]quinolin-7-yl)-6-ethyl-5-fluoro-3-methylnaphthalen-2-yl)acetic acid], the EC50 under setting [1] amounted to 32 nM.

`Cc1cc2ccc(C#CC3(O)CCOCC3)cc2c(-c2ccc(Cl)cc2)c1C(OC(C)(C)C)C(=O)O` (centres unmarked) [Compound 80, 2-tert-Butoxy-2-(1-(4-chlorophenyl)-7-((4-hydroxytetrahydro-2H-pyran-4-yl)ethynyl)-3-methylnaphthalen-2-yl)acetic acid]: the EC50 under setting [1] was 51 nM.

Consider `Cc1cc2cc(F)c(F)cc2c(-c2ccc3c4c(ccnc24)CCO3)c1[C@@H](OC(C)(C)C)C(=O)O` [Compound 109, (R)-2-tert-Butoxy-2-((R)-1-(2,3-dihydropyrano[4,3,2-de]quinolin-7-yl)-6,7-difluoro-3-methylnaphthalen-2-yl)acetic acid], for which the EC50 is 29000 nM.

As for `Cc1cc2ccccc2c(C2=CC(C)(C)CCC2=O)c1[C@H](OC(C)(C)C)C(=O)O` [Compound 157], the EC50 was 10000 nM.

As for `Cc1cc2ccccc2c(-c2ccc(Cl)cc2Cl)c1C(OC(C)(C)C)C(=O)O` (centres unmarked) [Compound 33, tert-Butoxy-[1-(2,4-dichloro-phenyl)-3-methyl-naphthalen-2-yl]-acetic acid], the EC50 under setting [1] stood at 120 nM.

In the case of `CCC(O)(C#Cc1ccc2cc(C)c(C(OC(C)(C)C)C(=O)O)c(-c3ccc(Cl)cc3)c2c1)CC` (centres unmarked) [Compound 82, 2-tert-Butoxy-2-(1-(4-chlorophenyl)-7-(3-ethyl-3-hydroxypent-1-ynyl)-3-methylnaphthalen-2-yl)acetic acid], under setting [1], the EC50 worked out at 58 nM.

On to `Cc1c(C(OC(C)(C)C)C(=O)O)c(-c2ccc(Cl)cc2)c2ccccc2c1-c1ccc(Cl)cc1` (centres unmarked) [Compound 140, 2-(1,4-Bis(4-chlorophenyl)-3-methylnaphthalen-2-yl)-2-tert-butoxyacetic acid], for which, under setting [1], the EC50 was 1600 nM.

With `Cc1cc2cc(Cl)c(F)cc2c(-c2ccc3c4c(ccnc24)CCO3)c1[C@H](OC(C)(C)C)C(=O)O` [Compound 101, (S)-2-tert-Butoxy-2-((R)-6-chloro-1-(2,3-dihydropyrano[4,3,2-de]quinolin-7-yl)-7-fluoro-3-methylnaphthalen-2-yl)acetic acid], the EC50 was 41 nM.

For the compound `Cc1cc2ccc(C#CC3CCCC3)cc2c(-c2ccc(Cl)cc2)c1C(OC(C)(C)C)C(=O)O` (centres unmarked) [Compound 74, 2-tert-Butoxy-2-(1-(4-chlorophenyl)-7-(cyclopentylethynyl)-3-methylnaphthalen-2-yl)acetic acid], the EC50 under setting [1] amounted to 1200 nM.

For `Cc1cc2ccc(C#CC3(N)CCCCC3)cc2c(-c2ccc(Cl)cc2)c1[C@H](OC(C)(C)C)C(=O)O` [Compound 100, (S)-2-(7-((1-Aminocyclohexyl)ethynyl)-1-(4-chlorophenyl)-3-methylnaphthalen-2-yl)-2-tert-butoxyacetic acid], the EC50 under setting [1] worked out at 23 nM.

For the compound `Cc1cc2ccc(C#CC(C)(C)C)cc2c(-c2ccc(Cl)cc2)c1C(OC(C)(C)C)C(=O)O` (centres unmarked) [Compound 72, 2-tert-Butoxy-2-(1-(4-chlorophenyl)-7-(3,3-dimethylbut-1-ynyl)-3-methylnaphthalen-2-yl)acetic acid], the concentration giving a half-maximal response (EC50) under setting [1] turned out to be 2000 nM.

Consider `Cc1c(C(OC(C)(C)C)C(=O)O)c(-c2ccc(Cl)cc2)c2ccccc2c1CO` (centres unmarked) [Compound 135, 2-tert-Butoxy-2-(1-(4-chlorophenyl)-4-(hydroxymethyl)-3-methylnaphthalen-2-yl)acetic acid], for which the EC50 under setting [1] was determined as 45 nM.

As to `Cc1cc2ccccc2c(-c2ccc(F)c3cccnc23)c1[C@H](OC(C)(C)C)C(=O)O` [Compound 160], the EC50 worked out at 36000 nM.

Consider `COc1ccc(Cc2c(OC)ccc3c(-c4ccc(Cl)cc4)c(C(OC(C)(C)C)C(=O)O)c(C)cc23)cc1` (centres unmarked) [Compound 49, 2-tert-Butoxy-2-(1-(4-chlorophenyl)-6-methoxy-5-(4-methoxybenzyl)-3-methylnaphthalen-2-yl)acetic acid], for which, under setting [1], the EC50 is 650 nM.

In the case of `CNC(=O)c1cc2cc(C)c([C@H](OC(C)(C)C)C(=O)O)c(-c3ccc4c5c(ccnc35)CCO4)c2cc1F` (atropisomer, axis not shown) [Compound 166], under setting [1], the EC50 worked out at 16000 nM.

Turning to `Cc1c([C@H](OC(C)(C)C)C(=O)O)c(-c2ccc(Cl)cc2)c2ccccc2c1Br` [Compound 150B, (S)-2-(4-bromo-1-(4-chlorophenyl)-3-methylnaphthalen-2-yl)-2-tert-butoxyacetic acid], the EC50 under setting [1] was 260 nM.

In the case of `COc1cccc2c(-c3ccc(Cl)cc3)c(C(OC(C)(C)C)C(=O)O)c(C)cc12` (centres unmarked) [Compound 34, tert-Butoxy-[1-(4-chloro-phenyl)-5-methoxy-3-methyl-naphthalen-2-yl]-acetic acid], the EC50 under setting [1] came out at 350 nM.

For `C=Cc1ccc2cc(C)c(C(OC(C)(C)C)C(=O)O)c(-c3ccc(Cl)cc3)c2c1` (centres unmarked) [Compound 76, 2-tert-Butoxy-2-(1-(4-chlorophenyl)-3-methyl-7-vinylnaphthalen-2-yl)acetic acid], the EC50 under setting [1] amounted to 930 nM.

Take `CN(C)Cc1cc2ccccc2c(-c2ccc(Cl)cc2)c1[C@H](OC(C)(C)C)C(=O)O` [Compound 24, (S)-2-tert-Butoxy-2-(1-(4-chlorophenyl)-3-(dimethylaminomethyl)naphthalen-2-yl)acetic acid]: under setting [1], the EC50 is 29000 nM.

Consider `Cc1cc2cc(-c3ncccn3)ccc2c(-c2ccc(Cl)cc2)c1[C@H](OC(C)(C)C)C(=O)O` [Compound 59, (S)-2-tert-butoxy-2-(1-(4-chlorophenyl)-3-methyl-6-(pyrimidin-2-yl)naphthalen-2-yl)acetic acid], for which, under setting [1], the EC50 was determined as 160 nM.

`Cc1cc2cc(C(C)C)c(F)cc2c(-c2ccc3c4c(ccnc24)CCO3)c1[C@H](OC(C)(C)C)C(=O)O` (atropisomer, axis not shown) [Compound 167]: the EC50 under setting [1] turned out to be 29000 nM.

Turning to `Cc1cc2cc(-c3cncn3C)ccc2c(-c2ccc(Cl)cc2)c1[C@H](OC(C)(C)C)C(=O)O` [Compound 65, (S)-2-tert-butoxy-2-(1-(4-chlorophenyl)-3-methyl-6-(1-methyl-1H-imidazol-5-yl)naphthalen-2-yl)acetic acid], the EC50 under setting [1] was determined as 190 nM.

Take `Cc1c(C(OC(C)(C)C)C(=O)O)c(-c2ccc(Cl)cc2)c2ccccc2c1-c1ccc(N(C)C)nc1` (centres unmarked) [Compound 137, 2-tert-Butoxy-2-(1-(4-chlorophenyl)-4-(6-(dimethylamino)pyridin-3-yl)-3-methylnaphthalen-2-yl)acetic acid]: the EC50 under setting [1] was determined as 130 nM.

With `Cc1c(C(OC(C)(C)C)C(=O)O)c(-c2ccc(Cl)cc2)c2ccccc2c1CN1CCOCC1` (centres unmarked) [Compound 134, 2-tert-Butoxy-2-(1-(4-chlorophenyl)-3-methyl-4-(morpholinomethyl)naphthalen-2-yl)acetic acid], the EC50 under setting [1] was 150 nM.

For `Cc1cc2ccc(C#CC3CC3)cc2c(-c2ccc(Cl)cc2)c1C(OC(C)(C)C)C(=O)O` (centres unmarked) [Compound 75, 2-tert-Butoxy-2-(1-(4-chlorophenyl)-7-(cyclopropylethynyl)-3-methylnaphthalen-2-yl)acetic acid], the EC50 under setting [1] was 980 nM.

On to `Cc1cc2ccc(C#CC(C)(C)N)cc2c(-c2ccc3c4c(ccnc24)CCO3)c1C(OC(C)(C)C)C(=O)O` [Compound 86, (S)-2-((R)-7-(3-Amino-3-methylbut-1-ynyl)-1-(2,3-dihydropyrano[4,3,2-de]quinolin-7-yl)-3-methylnaphthalen-2-yl)-2-tert-butoxyacetic acid], for which, under setting [1], the EC50 came to 980 nM.

Take `Cc1cc2ccc(C#CC(C)(C)O)cc2c(-c2ccc(Cl)cc2)c1[C@H](OC(C)(C)C)C(=O)O` [Compound 99, (S)-2-tert-Butoxy-2-(1-(4-chlorophenyl)-7-(3-hydroxy-3-methylbut-1-ynyl)-3-methylnaphthalen-2-yl)acetic acid]: the EC50 under setting [1] stood at 107 nM.

With `Cc1c(C(OC(C)(C)C)C(=O)O)c(-c2ccc(Cl)cc2)c2ccccc2c1CN(C)C` (centres unmarked) [Compound 133, 2-tert-Butoxy-2-(1-(4-chlorophenyl)-4-((dimethylamino)methyl)-3-methylnaphthalen-2-yl)acetic acid], the EC50 under setting [1] came out at 123 nM.

As to `C=Cc1cc2ccccc2c(-c2ccc(Cl)cc2)c1[C@H](OC(C)(C)C)C(=O)O` [Compound 29A, (S)-2-tert-Butoxy-2-(1-(4-chlorophenyl)-3-vinylnaphthalen-2-yl)acetic acid], the EC50 under setting [1] stood at 130 nM.

As to `Cc1cc2cc(F)ccc2c(-c2ccc3c4c(ccnc24)CCO3)c1C(OC(C)(C)C)C(=O)O` (centres unmarked) [Compound 162], the EC50 worked out at 1400 nM.
